According to patent publication EP1144412B1, “IMMUNOSUPPRESSIVE EFFECTS OF PTERIDINE DERIVATIVES” (4 AZA Bioscience nv, priority 1998, dated 2000):
Where two headings read alike, the source gives them in different places.

How the values were obtained:
[1] = tested on: Peripheral blood mononuclear cells (PBMC); assay: Mixed lymphocyte reaction (MLR), [3H]-thymidine incorporation; assay type: cell-based; conditions: Homo sapiens
Description: (§1) Various models may be used for testing an immunosuppressive effect. In vivo, for example, different transplantation models are available. They are strongly influenced by different immunogenicities, depending on the donor and recipient species used and depending on the nature of the transplanted organ. The survival time of transplanted organs can thus be used to measure the suppression of the immune response. In vitro, there exist also various models. The most used are lymphocyte activation tests. Usually activation is measured via lymphocyte proliferation. Inhibition of proliferation thus always means immunosuppression under the experimental conditions applied. There exist different stimuli for lymphocyte activation: • coculture of lymphocytes of […] (MLR = mixed lymphocyte reaction): lymphocytes expressing different minor and major antigens of the HLA-DR type (= alloantigens) activate each other non-specifically. • CD3 assay: here there is an activation of the T-lymphocytes via an exogenously added antibody (OKT3). This antibody reacts against the CD3 molecule located on the lymphocyte membrane. This molecule has a costimulatory function. […] This molecule is also located on the lymphocyte membrane, and delivers strong costimulatory signals.
Peripheral blood mononuclear cells (PBMC) were isolated from heparinized peripheral blood by density gradient centrifugation over Lymphoprep (Nycomed, Maorstua, Norway). Allogeneic PBMC or EBV-transformed human B cells [RPMI1788 (ATCC name CCL156)] which strongly express B7-1 and B7-2 were used as stimulator cells after irradiation with 30 Gy. MLR was performed in triplicate wells. After 5 days incubation at 37EC, 1 µCi [^3H]-thymidine was added to each cup. After a further 16 hours incubation, cells were harvested and counted in a β-counter.
The percent suppression of proliferation by drugs was counted using the formula Percent inhibition =((cpm + drugs) - cpm Cult. Med)/((cpm - drugs) - cpm Cult. Med.)x 100 [formula]

Highly purified T cells [2] = assay: T cell proliferation induced by anti-CD3 mAb + PMA (BrdU incorporation); assay type: cell-based, Human; conditions: Homo sapiens, T-cell
Description: as §1
(§2) T cells were purified by removing non-T cells. Briefly,monocytes were removed by cold agglutination. The resulting lymphoid cells were further purified by a cell enrichment immunocolumn [Cellect Human T (Biotex, Edmonton, Alberta, Canada)] by a process of negative selection.
(§3) Measurements of T cell proliferations induced by anti-CD3 mAb + PMA or anti-CD28 mAb + PMA
(§4) Highly purified T cells (10^6/ml) were stimulated by immobilized anti-CD3 àr anti-CD28 mAb in the presence of PMA. Anti-CD3 mAb (CLB-CD3; CLB, Amsterdam, The Netherlands) were fixed on the 96-microwell plates by incubating the wells with 50 µl of mAb solution (1/800 dilution in culture medium). Anti-CD28 mAb (CLB-CD28; CLB, Amsterdam, The Netherlands) 50 µl (1/650 dilution in culture medium) was added directly to the wells. Further, 20 µl PMA (Sigma, St. Louis, MO, USA) solution (final concentration: 0.5 ng/ml) was added. Subsequently, 20 µl of immunosuppressants were added by serial dilution in triplicate wells. Finally 100 µl of the T cell suspension (10^6/ml) was added. After 48-hour incubation at 37EC in 5% CO2 20 Φl BrdU (100 ΦM solution) (Cell Proliferation Elisa, Boehringer-Mannheim Belgium) was added to each well. After a further overnight incubation the T cell proliferation was measured using a colorimetric immunoassay for qualification of cell proliferation based on measurements of the incorporation of BrdU during DNAsynthesis. The optical density (OD) was measured by a Behring EL311 plate reader at 450 nm (reference wavelength: 690 nm). The percent suppression of proliferation by drugs was counted using the formula: Per cent inhibition =((OD + drugs) - (OD Cult. Med.))/((OD - drugs) - (OD Cult. Med.))x 100 [formula]

Highly purified T cells [3] = assay: T cell proliferation induced by anti-CD28 mAb + PMA (BrdU incorporation); assay type: cell-based, Human; conditions: Homo sapiens, T-cell
Description: as §1, §2, §3, §4

[4] = Table II, read-out: IC50 in µM of pteridine derivative MLR
[5] = untitled structure table, no unit printed there, same values in Table II as IC50 in µM, read-out: MLR
[6] = Table II, read-out: IC50 in µM of pteridine derivative ACD3
[7] = untitled structure table, no unit printed there, same values in Table II as IC50 in µM, read-out: aCD3
[8] = Table II, read-out: IC50 in µM of pteridine derivative aCD28
[9] = untitled structure table, no unit printed there, same values in Table II as IC50 in µM, read-out: aCD28

Row | SMILES | IC50 [1, 4] | IC50 [1, 5] | IC50 (Highly purified T cells [2]; [6]) | IC50 (Highly purified T cells [2]; [7]) | IC50 (Highly purified T cells [3]; [8]) | IC50 (Highly purified T cells [3]; [9])
1 | Nc1nc(N)c2nc(CNCc3ccccc3)cnc2n1 [Compound 19, 2,4-diamino-6-benzylaminomethyl pteridine] | 50 µM | 50 µM | 123 µM | 123 µM | 118 µM | 118 µM
2 | CN(C)Cc1cnc2nc(N)nc(N)c2n1 [Compound 20, 2,4-diamino-6-dimethyl aminomethyl pteridine] | > 200 µM | > 200 µM | 170 µM | 170 µM | 100 µM | 100 µM
3 | CCN(CC)c1nc(N)nc2ncc(-c3ccccc3)nc12 [Compound 21, 2-amino-4-diethylamino-6-phenylpteridine] | 15 µM | 15 µM | 80 µM | 80 µM | 20 µM | 20 µM
4 | CCN(CC)c1nc(N)nc2ncc(-c3ccc(Cl)cc3)nc12 [Compound 22, 2-amino-4-diethylamino-6-(4-chlorophenyl) pteridine] | 17 µM | 17 µM | 50 µM | 50 µM | 20 µM | 20 µM
5 | CCN(CC)c1nc(N)nc2ncc(-c3ccc(OC)cc3)nc12 [Compound 23, 2-amino-4-diethylamino-6-(4-methoxyphenyl) pteridine] | 12 µM | 12 µM | 20 µM | 20 µM | 20 µM | 20 µM
6 | CCN(CC)c1nc(N)nc2ncc(-c3ccc(OC)c(OC)c3)nc12 [Compound 24, 2-amino-4-diethylamino-6-(3,4-dimethoxyphenyl) pteridine] | 0.08 µM | 0.08 µM | 0.5 µM | 0.5 µM | 0.1 µM | 0.1 µM
7 | Nc1nc(N(Cc2ccccc2)Cc2ccccc2)c2nc(-c3ccccc3)cnc2n1 [Compound 25, 2-amino-4-dibenzylamino-6-phenyl pteridine] | 75 µM | 75 µM | 25 µM | 25 µM | 25 µM | 25 µM
8 | Nc1nc(N(Cc2ccccc2)Cc2ccccc2)c2nc(-c3ccc(Cl)cc3)cnc2n1 [Compound 26, 2-amino-dibenzylamino-6-(4-chlorophenyl) pteridine] | 100 µM | 100 µM | 75 µM | 75 µM | 20 µM | 20 µM
9 | COc1ccc(-c2cnc3nc(N)nc(N(Cc4ccccc4)Cc4ccccc4)c3n2)cc1 [Compound 27, 2-amino-4-dibenzylamino-6-(4-methoxyphenyl) pteridine] | 50 µM | 50 µM | 20 µM | 20 µM | 15 µM | 15 µM
10 | COc1ccc(-c2cnc3nc(N)nc(N(Cc4ccccc4)Cc4ccccc4)c3n2)cc1OC [Compound 28, 2-amino-4-dibenzylamino-6-(3,4-dimethoxyphenyl) pteridine] | 3.5 µM | 3.5 µM | 4.3 µM | 4.3 µM | 3.2 µM | 3.2 µM
11 | CCCN(CCC)c1nc(N)nc2ncc(-c3ccccc3)nc12 [Compound 29, 2-amino-4-dipropylamino-6-phenylpteridine] | 15 µM | 15 µM | 25 µM | – | 25 µM | 25 µM
12 | CCCN(CCC)c1nc(N)nc2ncc(-c3ccc(Cl)cc3)nc12 [Compound 30, 2-amino-4-dipropylamino-6-(4-chlorophenyl)pteridine] | 13 µM | 13 µM | 9.7 µM | 9.7 µM | 6.7 µM | 6.7 µM
13 | CCCN(CCC)c1nc(N)nc2ncc(-c3ccc(OC)cc3)nc12 [Compound 31, 2-amino-4-dipropylamino-6-(4-methoxyphenyl)pteridine] | 8.5 µM | 8.5 µM | 5.7 µM | 5.7 µM | 2.8 µM | 2.8 µM
14 | CCCN(CCC)c1nc(N)nc2ncc(-c3ccc(OC)c(OC)c3)nc12 [Compound 32, 2-amino-4-dipropylamino-6-(3,4-dimethoxyphenyl)pteridine] | 2.2 µM | 2.2 µM | 0.8 µM | 0.8 µM | 0.7 µM | 0.7 µM
15 | Nc1nc(N2CCOCC2)c2nc(-c3ccccc3)cnc2n1 [Compound 33, 2-amino-4-morpholino-6-phenylpteridine] | 15 µM | 15 µM | 100 µM | 100 µM | 20 µM | 20 µM
16 | Nc1nc(N2CCOCC2)c2nc(-c3ccc(Cl)cc3)cnc2n1 [Compound 34, 2-amino-4-morpholino-6-(4-chlorophenyl)pteridine] | 12 µM | 12 µM | 20 µM | 20 µM | 20 µM | 20 µM
17 | COc1ccc(-c2cnc3nc(N)nc(N4CCOCC4)c3n2)cc1OC [Compound 36, 2-amino-4-morpholino-6-(3,4-dimethoxyphenyl)pteridine] | 0.1 µM | 0.1 µM | 0.4 µM | 0.4 µM | 0.3 µM | 0.3 µM
18 | Nc1nc(N2CCCCC2)c2nc(-c3ccccc3)cnc2n1 [Compound 37, 2-amino-4-piperidino-6-phenylpteridine] | 15 µM | 15 µM | 80 µM | 80 µM | 20 µM | 20 µM
19 | Nc1nc(N2CCCCC2)c2nc(-c3ccc(Cl)cc3)cnc2n1 [Compound 38, 2-amino-4-piperidino-6-(4-chlorophenyl)pteridine] | 15 µM | 15 µM | 70 µM | 70 µM | 25 µM | 25 µM
20 | CN1CCN(c2nc(N)nc3ncc(-c4ccccc4)nc23)CC1 [Compound 41, 2-amino-4-N-methylpiperazino-6-phenylpteridine] | 15 µM | 15 µM | 40 µM | 40 µM | 25 µM | 25 µM
21 | CN1CCN(c2nc(N)nc3ncc(-c4ccc(Cl)cc4)nc23)CC1 [Compound 42, 2-amino-4-N-methylpiperazino-6-(4-chlorophenyl)pteridine] | 4.8 µM | 4.8 µM | 11 µM | 11 µM | 4.2 µM | 4.2 µM
22 | COc1ccc(-c2cnc3nc(N)nc(N4CCN(C)CC4)c3n2)cc1 [Compound 43, 2-amino-4-N-methylpiperazino-6-(4-methoxyphenyl)pteridine] | 12.3 µM | 12.3 µM | 11.7 µM | 11.7 µM | 4.2 µM | 4.2 µM
23 | COc1ccc(-c2cnc3nc(N)nc(N4CCN(C)CC4)c3n2)cc1OC [Compound 44] | 2 µM | 2 µM | 7.3 µM | 7.3 µM | 6.5 µM | 6.5 µM
24 | Nc1nc(N2CCNCC2)c2nc(-c3ccccc3)cnc2n1 [Compound 46, 2-amino-4-piperazino-6-phenylpteridine] | 12 µM | 12 µM | 11.7 µM | 11.7 µM | 5 µM | 5 µM
